Here are results for one substance from patent US20220243211A1, “PEPTIDE NUCLEIC ACID COMPOSITIONS WITH MODIFIED HOOGSTEEN BINDING SEGMENTS AND METHODS OF USE THEREOF” (Yale University, priority 2019, published 2022).

This series deals with CFBE cells. Nature of the series: Comet assay for DNA damage. Format: cell-based, human. Conditions: versus untreated cells. As for the experimental part: FIG. 6 is a bar graph showing the results of a comet assay for DNA damage. TriTek Comet Score FreeWare was used to calculate comet tail moment for each treatment condition. Plots show the average comet tail moment which indicates the extent of DNA damage. Error bars represent the SEM; ****P<0.0001 by unpaired t-test.
50,000 CFBE cells were plated per well in 6-well plates. The following day, the cells were treated with the indicated PNA containing NPs, treated with lipfectamine alone, or transfected with CRISPR-based editing reagents. The next day, cells were collected and prepared using the Trevigen Comet Assay kit per the manufacturer's protocol (Trevigen, Gaithersburg, Md.). Briefly, cells were suspended in agarose and added to comet slides. After the agarose solidified, the slides were incubated for 1 hour in lysis solution, placed in electrophoresis solution for 30 min, then run at 21 V for 1 hour at 4° C. The slides were then placed in acetate solution for 30 min, then incubated in 70% ethanol solution for 30 min. The comet slides were then dried, stained with SYBR Green for 30 min and then visualized using an EVOS microscope. TriTek Comet Score freeware was used to analyze the images. The average comet tail moment was plotted for each condition. Error bars represent the SEM; ****P<0.0001 by unpaired t-test. […]

Take “H-KKK-TJTJJTTT-OOO-TTTCCTCTATGGGTAAG-KKK-NH2 [γhCF PNA-h] (TNTNNTTTTTTCCTCTATGGGTAAG; listed as DNA, chemistry not fully specified) [tail clamp PNA targeting human CFTR gene with MPγ monomers in Hoogsteen domain]”: the comet tail moment entry is recorded as “no significant change in comet tail moment”.
